{"source": "patent US11957783B2", "about": "“Topical immunosensitizers to treat viral and fungal infections” (Squarex, LLC, priority 2018, dated 2024)", "key": {"[1]": {"experiment": "Adverse events after single topical SADBE dose, Phase 1 study (Example 1)", "format": "in vivo, human", "experimental": "(§1) After a screening visit at which blood was drawn to test for IgG antibody against HSV-1 and subjects were interviewed for inclusion/exclusion criteria, selected subjects returned for blood draws on day 1. After the blood draw on day 1, subjects in group A only were dosed with SADBE. A petrolatum donut was applied with a cotton swab to form about a 1 cm diameter donut on skin on the inner aspect of the upper arm. Then a separate cotton swab was dipped in a 2% SADBE solution (w/v) in DMSO, and the swab was then used to apply about 10-20 mg of solution over about a 1 cm diameter circle within the petrolatum donut. Immediately after application, the application site was covered with TEGADERM. Subjects were advised to remove the TEGADERM and rinse and wipe the spot three hours later. The group A subjects then returned for blood draws on days 15 and 57 and were queried about adverse events on those dates.\nOf the 12 subjects treated, two experienced stinging at the application site, and one had nausea that was ruled possibly related to the study drug."}, "[2]": {"experiment": "Rash (erythema) from the sensitization dose (Example 2)", "format": "in vivo, human", "conditions": "pooled treatment groups B and C; placebo 2 of 13", "excerpt": "Visit 1: Upon entering the study, patients are sensitized to squaric acid dibutyl ester (SADBE) by dipping a cotton-tipped swab in a 2% solution of SADBE in DMSO and swabbing a 1 cm^2 area on the forearm. Participants are told then to wait at least 2 weeks for their first treatment."}, "Interleukin 2": {"tested_on": "Interleukin 2", "experiment": "Plasma level of Interleukin 2", "format": "in vivo, human", "conditions": "for Interleukin 2 in plasma, group average / Interleukin 2 in plasma, number of subjects with undetectable levels: n = 12", "experimental": "as §1\n(§2) At this study visit where blood was drawn it was tested for blood cell counts, various cytokine levels, and anti-HSV-1 IgG quantitative levels.\nAll subjects had detectable IL-2 and the large majority had detectable IL-2 receptor."}, "herpes labialis outbreak [3]": {"tested_on": "herpes labialis outbreak", "conditions": "2.0% SADBE in DMSO once to arm; placebo 40 days; P=0.009; previous trial (Palli 2017); cited from earlier work"}, "herpes labialis outbreak [4]": {"tested_on": "herpes labialis outbreak", "experiment": "Clinical trial of herpes labialis outbreaks after sensitization dose (Example 2)", "format": "in vivo, human", "experimental": "The median time to the next outbreak for the placebo group was 40 days vs more than 122 days for the 2.0% SADBE group, which difference was highly significant (P=0.009) (Palli 2017). SADBE is a topical immunosensitizer that induces a delayed-type hypersensitivity response and is commonly used in the treatment of verruca vulgaris and alopecia areata (Lee 1999; Silverberg 2000, Rokhshar 1998). […]\n(p<0.05). The average days to the first outbreak after the sensitization dose was also measured. […] The A: placebo, 0% SADBE in DMSO."}, "[5]": {"tested_on": "peripheral blood mononuclear cells (PBMC)", "experiment": "PBMC proliferation in vitro (tritiated thymidine incorporation), Example 1", "format": "cell-based, human", "conditions": "for PBMC Percent proliferation, normalized all three stimuli: normalized to average of group A day 57, n = 36; for PBMC Percent proliferation: n = 12; for Percent proliferation: 2 subjects with largest and smallest day 57-day 1 difference removed, n = 10", "experimental": "as §1\nPBMC were isolated using SepMate PBMC isolation tubes (Stem Cell Technologies, Vancouver, Canada) and Ficoll-Paque according to the manufacturer's instructions. PBMC were isolated and suspended in negative control medium at 2 million cells/ml. PBMC suspension (100 μL) was added to 100 μL of medium in quadruplicate in 96-well plates. The plates were prepared in advance and stored at −70° C. The wells were in five different conditions in quadruplicate with these final concentrations after addition of the 100 μL of PBMC suspension in negative control medium. • 1. Negative control in medium (RPMI with glutamine and pen/strep, supplemented with 10% human A/B serum). • 2. Medium plus 16 μg/ml protein from heat-inactivated HSV-1-infected Vero cell extracts. • 3. Medium plus heat-inactivated HSV-1 cell-free virus at a final 7.5 million pfu/ml. • 4. Medium plus Candida cell extract. (Greer item number M15A50, 20,000 pnu/ml allergenic extract mixed molds Candida albicans, was diluted 1/50 into medium). • 5. Positive control, medium plus 10 μg/ml concanavalin A.\nA second plate was incubated for 4 days. On the 4th day 1 μCi of tritiated thymidine in 50 μl of fresh negative control medium was added to each well. After 22 hours incubation the cells were harvested onto a filter mat and each well counted by scintillation counting for tritium incorporation into DNA as a quantitative measure of cell division.\nThe relative proliferation for each test condition was calculated as (avg. CPM test condition−avg. CPM negative control)/(avg. CPM positive control−avg. CPM negative control). The average CPM is the average tritium counts per minute of the 4 wells in a given test condition for a given collection point of a given patient. To calculate the normalized proliferation to all three stimuli, each data point was converted to a percentage proliferation relative to the average proliferation to that stimulus in group C or group A day 57, whichever was being compared to.\nImmediately after the blood collection on day 1, the group A subjects (frequent cold sore sufferers) were treated with one dose of topical 2% SADBE in DMSO applied to the inner aspect of the subject's arm. They returned for blood collection on day 15 and day 57, two and 8 weeks after the single dose of drug. The relative proliferation of PBMC from the group A subjects collected on days 1, 15, and 57, in response to the stimuli, is shown in Table 4."}, "anti-HSV-1 IgG": {"tested_on": "anti-HSV-1 IgG", "experiment": "Serum anti-HSV-1 IgG quantitative levels", "format": "in vivo, human", "conditions": "for Level of anti-HSV1 IgG, group average: n = 12", "experimental": "as §1, §2\nAnti-HSV-1 IgG was quantified in serum collected at each study visit."}}, "note": "Read-outs that look alike come from different tables or passages of the source."}
{"smiles": "CCCCOc1c(OCCCC)c(=O)c1=O", "note": "[SADBE, 3,4-Dibutoxy-3-cyclobutene-1,2-dione]", "values": [{"measurement": "rashes or delayed-type hypersensitivity reactions", "setting": "[1]; 12 subjects treated", "result": "No rashes or delayed-type hypersensitivity reactions were reported"}, {"measurement": "tolerability of study drug", "setting": "[1]; 12 subjects, single topical 2% SADBE in DMSO on arm", "result": "well tolerated"}, {"measurement": "subjects who experienced stinging at the application site", "setting": "[1]; of the 12 subjects treated", "result": "two"}, {"measurement": "subjects with nausea ruled possibly related to the study drug", "setting": "[1]; of the 12 subjects treated", "result": "one"}, {"measurement": "subjects with rash (erythema) from the sensitization dose", "setting": "[2]", "result": "17 of 28"}, {"measurement": "Interleukin 2 in plasma, Sample/A1", "setting": "Interleukin 2; A15 / group A day 1", "result": 0.96}, {"measurement": "Interleukin 2 in plasma, Sample minus A1", "setting": "Interleukin 2; A15 minus group A day 1", "result": -0.54, "unit": "pg/mL"}, {"measurement": "Interleukin 2 in plasma, Sample/A1", "setting": "Interleukin 2; A57 / group A day 1", "result": 0.84}, {"measurement": "Interleukin 2 in plasma, Sample minus A1", "setting": "Interleukin 2; A57 minus group A day 1", "result": -2.13, "unit": "pg/mL"}, {"measurement": "Interleukin 2 in plasma, group average", "setting": "Interleukin 2; group A day 15 (A15)", "result": 12.90, "unit": "pg/mL"}, {"measurement": "Interleukin 2 in plasma, number of subjects with undetectable levels", "setting": "Interleukin 2; group A day 15 (A15)", "result": 0}, {"measurement": "Interleukin 2 in plasma, group average", "setting": "Interleukin 2; group A day 57 (A57)", "result": 11.30, "unit": "pg/mL"}, {"measurement": "Interleukin 2 in plasma, number of subjects with undetectable levels", "setting": "Interleukin 2; group A day 57 (A57)", "result": 0}, {"measurement": "median time to the next outbreak", "setting": "herpes labialis outbreak [3]", "result": "more than 122 days"}, {"measurement": "proportion who had a first outbreak between 30 and 120 days after receiving the sensitization dose", "setting": "herpes labialis outbreak [4]; pooled groups B and C (2% SADBE in DMSO sensitization), placebo group A 4 of 14", "result": "5 of 26"}, {"measurement": "median time to the next outbreak, outbreaks in the 21 days after the sensitization dose excluded", "setting": "herpes labialis outbreak [4]; treatment group, counting from day of sensitization dose, placebo 56 days", "result": "greater than 120 days"}, {"measurement": "median time to the next outbreak", "setting": "herpes labialis outbreak [4]; treatment group, from sensitization dose (2% SADBE), placebo 42 days, log rank P 0.009", "result": "greater than 120 days"}, {"measurement": "median time to the next outbreak, counting from day 21 after the sensitization dose", "setting": "herpes labialis outbreak [4]; treatment group, placebo 35 days", "result": "greater than 99 days"}, {"measurement": "subsequent outbreak during the study time", "setting": "herpes labialis outbreak [4]; treatment groups B and C receiving 2% SADBE in DMSO as sensitization dose", "result": "usually did not have a subsequent outbreak during the study time"}, {"measurement": "median time to next HSV outbreak in treated patients without visible erythema at application site", "setting": "herpes labialis outbreak [4]; versus placebo", "result": "longer median time to the next HSV outbreak than patients receiving placebo"}, {"measurement": "PBMC Percent proliferation, normalized all three stimuli", "setting": "[5]; group A Day 15", "result": 71.65, "unit": "%"}, {"measurement": "Percent proliferation, normalized all three stimuli", "setting": "[5]; group A Day 57, largest and smallest difference data points removed, n = 30", "result": 99.97, "unit": "%"}, {"measurement": "PBMC Percent proliferation, normalized all three stimuli", "setting": "[5]; group A Day 57", "result": 99.97, "unit": "%"}, {"measurement": "PBMC Percent proliferation", "setting": "[5]; stimulus Candida extract, group A Day 15 after one SADBE treatment", "result": 3.33, "unit": "%"}, {"measurement": "Percent proliferation", "setting": "[5]; stimulus Candida extract, group A Day 57", "result": 3.19, "unit": "%"}, {"measurement": "PBMC Percent proliferation", "setting": "[5]; stimulus Candida extract, group A Day 57 after one SADBE treatment", "result": 7.35, "unit": "%"}, {"measurement": "PBMC Percent proliferation", "setting": "[5]; stimulus HSV-1-infected cell extracts, group A Day 15 after one SADBE treatment", "result": 15.43, "unit": "%"}, {"measurement": "Percent proliferation", "setting": "[5]; stimulus HSV-1-infected cell extracts, group A Day 57", "result": 15.78, "unit": "%"}, {"measurement": "PBMC Percent proliferation", "setting": "[5]; stimulus HSV-1-infected cell extracts, group A Day 57 after one SADBE treatment", "result": 16.96, "unit": "%"}, {"measurement": "PBMC Percent proliferation", "setting": "[5]; stimulus HSV-1 virus, group A Day 15 after one SADBE treatment", "result": 10.52, "unit": "%"}, {"measurement": "Percent proliferation", "setting": "[5]; stimulus HSV-1 virus, group A Day 57", "result": 12.88, "unit": "%"}, {"measurement": "PBMC Percent proliferation", "setting": "[5]; stimulus HSV-1 virus, group A Day 57 after one SADBE treatment", "result": 13.37, "unit": "%"}, {"measurement": "Level of anti-HSV1 IgG, Sample/A1", "setting": "anti-HSV-1 IgG; A15 / group A day 1", "result": 1.13}, {"measurement": "Level of anti-HSV1 IgG, Sample minus A1", "setting": "anti-HSV-1 IgG; A15 minus group A day 1", "result": 1.08, "unit": "IV"}, {"measurement": "Level of anti-HSV1 IgG, Sample/A1", "setting": "anti-HSV-1 IgG; A57 / group A day 1", "result": 0.91}, {"measurement": "Level of anti-HSV1 IgG, Sample minus A1", "setting": "anti-HSV-1 IgG; A57 minus group A day 1", "result": "−0.73", "unit": "IV"}, {"measurement": "change in anti-HSV1 IgG from day 15 to day 57 in group A", "setting": "anti-HSV-1 IgG; serum, after one SADBE dose, P<0.01", "result": "highly significant decrease"}, {"measurement": "Level of anti-HSV1 IgG, group average", "setting": "anti-HSV-1 IgG; serum, group A day 15 (A15)", "result": 9.39, "unit": "IV"}, {"measurement": "Level of anti-HSV1 IgG, group average", "setting": "anti-HSV-1 IgG; serum, group A day 57 (A57)", "result": 7.58, "unit": "IV"}]}
